B1: RANKL: recombinant receptor activator for nuclear factor κ B ligand, mixed with Grafton DBM FLEX demineralized bone matrix implant (protein, UniProt O14788 140-317, looked up)
Tumor necrosis factor ligand …: IRAEKAMVDGSWLDLAKRSKLEAQPFAHLTINATDIPSGSHKVSLSSWYHDRGWAKISNMTFSNGKLIVNQDGFYYLYANICFRHHETSGDLATEYLQLMVYVTKTSIKIPSSHTLMKGGSTKYWSGNSEFHFYSINVGGFFKLRSGEEISIEVSNPSLLDPDQDATYFGAFKVRDID

Legend:
[1] = system: unilateral transverse femur fractures mice; settings: osteoclast inhibitors; cited from earlier work
[2] = system: three millimeter defects in femurs of athymic rats; experiment: Critical defect model in rat femurs, new bone formation by MicroCT; format: in vivo; settings: two micrograms recombinant RANKL mixed with 150 mg Grafton DBM FLEX vs Grafton DBM FLEX alone, three weeks
Procedure: To test whether recombinant RANKL mixed with DBM may aid bone healing, a critical defect model was used in rat femurs. Three millimeter defects were created in femurs of athymic rats. The rats were divided into two groups, the bone defects from one group were implanted with 150 mg of Grafton® DBM FLEX (Osteotech, Eatontown, N.J.), the second group received Grafton® DBM FLEX mixed with two micrograms of recombinant RANKL. At three weeks, the rat femur defects were evaluated by MicroCT. […] Data was analyzed using paired student-t-test.

| Molecule | removal of cartilage and remodeling of the fracture callus [1] | new bone formation compared to control group [2] |
| --- | --- | --- |
| denosumab: osteoclast inhibitor | delayed | – |
| NCCCC(O)(P(=O)(O)O)P(=O)(O)O [alendronate] | delayed | – |
| B1 | – | significantly (p<0.05) higher |

Reference: patent publication US9597431B2, “Compositions and methods for promoting bone formation” (Warsaw Orthopedic, Inc., priority 2008, dated 2017)
